Values quoted from earlier work as cited in patent US7955629B2, “Method of feeding milk replacer with carnitine” (Land O'Lakes Purina Feed LLC, priority 2005, dated 2011).

Legend:
[1] = ten month old steers; 0.6 and 1.2 grams per day; forty two day trial
[2] = not given; remark: listed apart in the source
[3] = not given; remark: listed apart in the source

C[N+](C)(C)CC(O)CC(=O)[O-] (centres unmarked) [carnitine]
average daily gain compared to the control (heifers fed 0.6 and 1.2 grams per day, midpoint of the experiment): statistically significantly greater | average daily weight gain, fed or not fed carnitine (heifers, end of the forty two day experiment): no statistically significant difference | effectiveness of carnitine (backfat depths) [1]: inconclusive | Acetate to proprionate ratios ([2]; mature ruminally cannulated steers): not effected | nitrogen uptake from the rumen ([2]; supplementation at high levels in a high roughage diet): little effect | milk fat content and milk fat yield ([3]; dosed directly into the abomasum): decreased | digestible and metabolized energy from the diet ([3]; dosed directly into the rumen or abomasum): tended to increase | Milk production ([3]; dosed into the rumen or abomasum): not affected
